The target of the assay is Sodium/hydrogen exchanger 9B2 (Homo sapiens) (UniProt Q86UD5). Put plainly: SLC9B2 sodium/proton exchange inhibitors – cell-based, pHluorin biosensor fluorescence, HEK-293, SLC9B2 overexpression, dose response (AID 1794821). Conditions: HEK-293 SLC9B2 OE, pHluorin pH biosensor fluorescence.

Experimental findings from PubChem BioAssay AID1794821 are described below.

Sodium/hydrogen exchanger 9B2 (Homo sapiens), sequence (Q86UD5 whole entry, looked up): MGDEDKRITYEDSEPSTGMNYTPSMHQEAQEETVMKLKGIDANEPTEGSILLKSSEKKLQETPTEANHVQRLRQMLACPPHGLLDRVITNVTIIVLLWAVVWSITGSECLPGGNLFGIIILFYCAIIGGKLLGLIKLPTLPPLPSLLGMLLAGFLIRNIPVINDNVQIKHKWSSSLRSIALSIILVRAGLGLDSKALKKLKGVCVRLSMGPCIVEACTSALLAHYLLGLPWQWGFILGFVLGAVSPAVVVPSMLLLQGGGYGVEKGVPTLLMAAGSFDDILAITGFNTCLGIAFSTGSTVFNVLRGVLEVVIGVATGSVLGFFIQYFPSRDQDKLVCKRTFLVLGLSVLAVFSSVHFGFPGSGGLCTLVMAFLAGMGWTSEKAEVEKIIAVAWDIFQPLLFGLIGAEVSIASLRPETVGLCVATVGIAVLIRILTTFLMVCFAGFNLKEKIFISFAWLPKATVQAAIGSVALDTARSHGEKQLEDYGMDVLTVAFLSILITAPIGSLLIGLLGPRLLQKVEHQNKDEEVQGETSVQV

As usually defined, the IC50 is the concentration at which inhibition is half-maximal. As to `O=C(CCc1ccc(O)cc1)c1c(O)cc(O)cc1O`, the half-maximal inhibitory concentration (IC50) was 90 µM.
